Legend:
Candida albicans = assay: Antifungal activity against fluconazole-resistant Candida albicans ATCC 64550 after overnight incubation by CLSI broth microdilution method; assay type: functional
[1] = Retention time of the compound at 0.4 mM by HPLC analysis; assay type: physicochemical; conditions: 400 µM

For H-IEIEIEIE-NH2, the MIC (Candida albicans) was over 100 µM and the Retention_time [1] was 16.1 min.

Substance H-IIIIKKKK-NH2 has an MIC (Candida albicans) of 12.5 µM and a Retention_time [1] of 12 min.

In the case of H-IIKKIIKK-NH2, the MIC (Candida albicans) is reported as over 100 µM and the Retention_time [1] is reported as 11.6 min.

For H-IK(Ac)IK(Ac)IK(Ac)IK(Ac)-NH2, the MIC (Candida albicans) was over 100 µM and the Retention_time [1] was 22.9 min.

H-IKAKIKIK-NH2 gave an MIC (Candida albicans) of 6.25 µM and a Retention_time [1] of 11.8 min.

With H-IKIAIKIK-NH2 the MIC (Candida albicans) was 12.5 µM and the Retention_time [1] was 13.8 min.

H-IKIKAKIK-NH2 gave an MIC (Candida albicans) of 6.25 µM and a Retention_time [1] of 11.8 min.

In the case of H-IKIKIAIK-NH2, the MIC (Candida albicans) is reported as 12.5 µM and the Retention_time [1] is reported as 13.8 min.

Work on H-IKIKIKAK-NH2 yielded an MIC (Candida albicans) of 6.25 µM and a Retention_time [1] of 12 min.

Work on H-IKIKIKIA-NH2 yielded an MIC (Candida albicans) of 12.5 µM and a Retention_time [1] of 13.9 min.

Work on H-IKIKIKIK-OH yielded an MIC (Candida albicans) of 12.5 µM and a Retention_time [1] of 13.5 min.

Substance H-ILRWPWWPWRRK-NH2 [OMIGANAN] has an MIC (Candida albicans) of 50 µM.

With H-IRIRIRIR-NH2 the MIC (Candida albicans) was 12.5 µM and the Retention_time [1] was 13.9 min.

With H-KIKIKIKI-NH2 the MIC (Candida albicans) was 3.13 µM and the Retention_time [1] was 14 min.

H-KKIIKKII-NH2 gave an MIC (Candida albicans) of over 100 µM and a Retention_time [1] of 12.6 min.

With H-KKKKKKKK-NH2 the MIC (Candida albicans) was over 100 µM and the Retention_time [1] was 2 min.

Substance H-KLKLK-NH2 has an MIC (Candida albicans) of over 100 µM and a Retention_time [1] of 11.2 min.

H-KLKLKLK-NH2 showed an MIC (Candida albicans) of 25 µM and a Retention_time [1] of 12.7 min.

H-KLKLKLKL-NH2 showed an MIC (Candida albicans) of 3.13 µM and a Retention_time [1] of 14.4 min.

With H-KLKLKLKLK-NH2 the MIC (Candida albicans) was 3.13 µM and the Retention_time [1] was 13.6 min.

H-LKLKL-NH2 gave an MIC (Candida albicans) of over 100 µM and a Retention_time [1] of 13.7 min.

For H-LKLKLK-NH2, the MIC (Candida albicans) was 100 µM and the Retention_time [1] was 12.8 min.

In the case of H-LKLKLKL-NH2, the MIC (Candida albicans) is reported as 50 µM and the Retention_time [1] is reported as 14.5 min.

Substance H-LKLKLKLKL-NH2 has an MIC (Candida albicans) of 3.13 µM and a Retention_time [1] of 15.1 min.

Substance H-LKLKLKLKLK-NH2 has an MIC (Candida albicans) of 3.13 µM and a Retention_time [1] of 14.5 min.

Substance H-VKVKVKVK-NH2 has an MIC (Candida albicans) of 6.25 µM and a Retention_time [1] of 11.1 min.

For H-WKWKWKWK-NH2, the MIC (Candida albicans) was over 100 µM and the Retention_time [1] was 15.9 min.
